Test results reported in patent publication US12016896B2, “Dipeptidomimetics as inhibitors of human immunoproteasomes” (CORNELL UNIVERSITY, priority 2014, dated 2024).

Experiments:
[1] = molecular target: human immunoproteasome β5i (Homo sapiens, UniProt P28062); experiment: IC50 against chymotryptic activity of human immunoproteasome (Hu i-20S, Ac-ANW-AMC substrate); type: biochemical; conditions: 0.4 nM Hu i-20S, 15 μM Ac-ANW-AMC, 0.02% SDS, pH 7.4, 37° C.
Protocol: (§1) Measurement of IC50s of Dipeptidomimetics Against Chymotryptic Activities of the Human Constitutive Proteasome and Immunoproteasome
(§2) Assays were conducted on a SpectraMax Gemini plate-reader from Molecular Devices (Sunnyvale, CA). In a black 96-well plate, 100 μL of pre-warmed assay mixture containing 0.4 nM Hu i-20S or 0.2 nM Hu c-20S, 15 μM N-acetyl-Alanine-Asparagine-Tryptophan-7-amino-4-methylcoumarin (Ac-ANW-AMC) (substrate for i-20S) or 25 μM N-succinyl-Leucine-Leucine-Valine-Tyrosine-7-amino-4-methylcoumarin (suc-LLVY-AMC) (substrate for c-20S), 0.02% SDS in buffer (50 mM HEPES, 0.5 mM EDTA, pH 7.4) was added to the wells that contained 1 μL inhibitor at 100× indicated concentrations in DMSO. The reaction progress of each well was recorded by monitoring fluorescence at 460 nm (λex=360 nm) for 120 minutes at 37° C. Velocities were derived from the initial linear range of the curves and the IC50s were obtained by plotting the percentage of inhibitor versus inhibitor concentrations (FIG. 1). […]

[2] = molecular target: human constitutive proteasome β5c (Homo sapiens, UniProt P28074); experiment: IC50 against chymotryptic activity of human constitutive proteasome (Hu c-20S, suc-LLVY-AMC substrate); type: biochemical; conditions: 0.2 nM Hu c-20S, 25 μM suc-LLVY-AMC, 0.02% SDS, pH 7.4, 37° C.
Protocol: as §1, §2

Compound	IC50 [1] [nM]	IC50 [2] [µM]
Cc1ccc(S(=O)(=O)N[C@H](CC(=O)N[C@@H](C)C(=O)NCc2cccc3ccccc23)CC(=O)NC(C)(C)C)cc1 [PK52279, (R)—N^1-(tert-butyl)-3-(4-methylphenylsulfonamido)-N^5—((S)-1-((naphthalen-1-ylmethyl)amino)-1-oxopropan-2-yl)pentanediamide]	14.5	34.7
C[C@@H](CC(=O)NCc1cccc2ccccc12)NC(=O)[C@H](CC(=O)NC(C)(C)C)NS(=O)(=O)C1CC1 [PK52295, (S)—N^4-(tert-butyl)-2-(cyclopropanesulfonamido)-N^1—((S)-4-((naphthalen-1-ylmethyl)amino)-4-oxobutan-2-yl)succinamide]	141	
Cc1ccc(S(=O)(=O)N[C@@H](CCC(=O)NC(C)(C)C)CC(=O)N[C@@H](C)C(=O)NCc2cccc3ccccc23)cc1 [PK52290, (S)—N^6-(tert-butyl)-3-(4-methylphenylsulfonamido)-N^1—((S)-1-((naphthalen-1-ylmethyl)amino)-1-oxopropan-2-yl)hexanediamide]	1600	13.9
Cc1ccc(S(=O)(=O)N[C@H](CC(=O)N[C@@H](C)CC(=O)NCc2cccc3ccccc23)CC(=O)NC(C)(C)C)cc1 [PK52291, (R)—N^1-(tert-butyl)-3-(4-methylphenylsulfonamido)-N^5—((S)-4-((naphthalen-1-ylmethyl)amino)-4-oxobutan-2-yl)pentanediamide]	8680	> 100
C[C@@H](CC(=O)NCc1cccc2ccccc12)NC(=O)[C@H](CC(=O)NC(C)(C)C)NC(=O)OC(C)(C)C [PK52272, tert-butyl ((S)-4-(tert-butylamino)-1-(((S)-4-((naphthalen-1-ylmethyl)amino)-4-oxobutan-2-yl)amino)-1,4-dioxobutan-2-yl)carbamate]	152	> 100
Cc1ccc(S(=O)(=O)N[C@@H](CCC(=O)NC(C)(C)C)C(=O)N[C@@H](C)C(=S)NCc2cccc3ccccc23)cc1 [PK53021]	671	13.4

Other lines, results leading:

IC50 [1] [nM]	IC50 [2] [µM]	Compound
180	16.1	Cc1cc(C(=O)N[C@@H](CC(=O)NC(C)(C)C)C(=O)N[C@@H](C)CC(=O)NCc2cccc3ccccc23)no1 [PKS2249, (S)—N^4-(tert-butyl)-2-(5-methylisoxazole-3-carboxamido)-N^1—((S)-4-((naphthalen-1-ylmethyl)amino)-4-oxobutan-2-yl)succinamide]
310	17.8	C[C@@H](CC(=O)NCc1cccc2ccccc12)NC(=O)[C@H](CCC(=O)NC(C)(C)C)NC(=O)CCc1ccccc1 [PKS2253, (S)—N^5-(tert-butyl)-N^1—((S)-4-((naphthalen-1-ylmethyl)amino)-4-oxobutan-2-yl)-2-(3-phenylpropanamido)pentanediamide]
2260	> 100	C[C@H](NC(=O)C[C@H](CC(=O)NC(C)(C)C)NC(=O)CCc1ccccc1)C(=O)NCc1cccc2ccccc12 [PKS2278, (R)—N^1-(tert-butyl)-N^5—((S)-1-((naphthalen-1-ylmethyl)amino)-1-oxopropan-2-yl)-3-(3-phenylpropanamido)pentanediamide]
> 100000	> 100	C[C@H](NC(=O)C[C@H](CC(=O)NC(C)(C)C)NC(=O)OC(C)(C)C)C(=O)Nc1ccccc1 [PKS3065]
11.2	16.6	C[C@@H](CC(=O)NCc1cccc2ccccc12)NC(=O)[C@H](CC(=O)NC(C)(C)C)NS(=O)(=O)c1ccccc1 [PKS2260, (S)—N^4-(tert-butyl)-N^1—((S)-4-((naphthalen-1-ylmethyl)amino)-4-oxobutan-2-yl)-2-(phenylsulfonamido)succinamide]
799	7	C[C@H](NC(=O)[C@H](CCC(=O)NC(C)(C)C)NC(=O)CCc1ccccc1)C(=S)NCc1cccc2ccccc12 [PKS3020]
13700	> 100	C[C@@H](CC(=O)Nc1cccc2ccccc12)NC(=O)[C@H](CC(=O)NC(C)(C)C)NC(=O)CCc1ccccc1 [PKS3081]
> 100000	> 100	C[C@@H](CC(=O)NCc1cccc2ccccc12)NC(=O)C[C@H](CC(=O)NC(C)(C)C)NC(=O)CCc1ccccc1 [PKS2292, (R)—N^1-(tert-butyl)-N^5—((S)-4-((naphthalen-1-ylmethyl)amino)-4-oxobutan-2-yl)-3-(3-phenylpropanamido)pentanediamide]
655	51.4	CC(C)(C)NC(=O)C[C@H](NC(=O)CCc1ccccc1)C(=O)NCCC(=O)NCc1cccc2ccccc12 [PKS21220]
6.4	8.81	Cc1ccc(S(=O)(=O)N[C@@H](CC(=O)NC(C)(C)C)C(=O)N[C@@H](C)CC(=O)NCc2cccc3ccccc23)cc1 [PKS2252, (S)—N^4-(tert-butyl)-2-((4-methylphenyl)sulfonamido)-N^1—((S)-4-((naphthalen-1-ylmethyl)amino)-4-oxobutan-2-yl)succinamide]
4.8	0.234	C[C@@H](CC(=O)NCc1cccc2ccccc12)NC(=O)[C@H](CC(=O)NC(C)(C)C)NC(=O)C(=O)c1c[nH]c2ccccc12 [PKS3054]
45	32.2	C[C@@H](CC(=O)NCc1cccc2ccccc12)NC(=O)[C@H](CC(=O)NC(C)(C)C)NC(=O)CCc1ccccc1 [PKS2251, (S)—N^4-(tert-butyl)-N^1—((S)-4-((naphthalen-1-ylmethyl)amino)-4-oxobutan-2-yl)-2-(3-phenylpropanamido)succinamide]
